Among the data in patent publication US20140303164A1, “THERAPEUTIC COMPOUNDS” (Gilead Sciences, Inc., priority 2013, published 2014) are inhibition and CC50 values, retold here.

For one data set, the system named is HIV-IIIb. In words: Test A: Antiviral Assay in MT4 Cells. The data set is classed as cell-based, HIV-1. Particulars: Human immunodeficiency virus 1, IIIB, MT4, 120 h; for inhibition at 0.2 µM: read-out: % inhibition at 0.2 μM; for inhibition at 2 µM: read-out: % inhibition at 2 μM. Here is the method:
Test A: Antiviral Assay in MT4 Cells
MT-4 cells were next mixed with HIV-IIIb at an m.o.i of 0.003 for 1 hour, after which time 35 μL of virus/cell mixture (2000 cells) was immediately added to each well containing 40 μL of diluted compound. The plates were then incubated at 37° C. for 5 days. […] Cell lysis was carried out by incubating at room temperature for 10 min and then chemiluminescence was read.

Data set [1] is described as follows: Test B: Cytotoxicity Assay. Particulars: human, uninfected MT-4 cells, same protocol as Test A. It counts as cell-based. In short, it runs like this: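 Uninfected MT-4 cells (2000 per well) incubated with diluted compound at 37° C. for 5 days, following the antiviral protocol without HIV-IIIb.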

The inhibition is the share of the control response that was lost under treatment. Usually CC50 stands for the concentration giving 50% cytotoxicity. Low readings indicate greater toxicity to the cells, high ones lower toxicity to the cells.

`Cn1nc(NS(C)(=O)=O)c2c(Cl)ccc(-c3ccc(C#CC(C)(C)O)nc3[C@H](Cc3cccc(F)c3)NC(=O)Cn3nc(C(F)F)c4c3C(F)(F)[C@@H]3C[C@H]43)c21` [Compound 188, N—((S)-1-(3-(4-chloro-1-methyl-3-(methylsulfonamido)-1H-indazol-7-yl)-6-(3-hydroxy-3-methylbut-1-yn-1-yl)pyridin-2-yl)-2-(3-fluorophenyl)ethyl)-2-((3b-S,4aR)-3-(difluoromethyl)-5,5-difluoro-3b,4,4a,5-tetrahydro-1H-cyclopropa[3,4]cyclopenta[1,2-c]pyrazol-1-yl)acetamide]: in the data set on HIV-IIIb, the inhibition at 0.2 µM was 92% and the inhibition at 2 µM was determined as 92%. In addition, in data set [1], the midpoint of cytotoxicity, the CC50 at 5 days, lay at 26.3 µM.
For the compound `CC(C)(O)C#Cc1ccc(-c2cc(F)c(F)c(C(N)=O)c2)c([C@H](Cc2cc(F)cc(F)c2)NC(=O)Cn2nc(C(F)(F)F)c3c2C(F)(F)[C@@H]2C[C@H]32)n1` [Compound 30, 5-(2-((S)-1-(2-((3bS,4aR)-5,5-difluoro-3-(trifluoromethyl)-3b,4,4a,5-tetrahydro-1H-cyclopropa[3,4]cyclopenta[1,2-c]pyrazol-1-yl)acetamido)-2-(3,5-difluorophenyl)ethyl)-6-(3-hydroxy-3-methylbut-1-yn-1-yl)pyridin-3-yl)-2,3-difluorobenzamide], in the data set with HIV-IIIb, the inhibition at 0.2 µM was 1% and the inhibition at 2 µM was found to be 91%. In addition, in data set [1], it took 8.58 µM to reach half-maximal cytotoxicity (CC50 at 5 days).
With `Cc1ccc(C)c2c1NC(=O)C2CC(=O)N[C@@H](Cc1cc(F)cc(F)c1)c1nc(C#CC(C)(C)O)ccc1-c1ccc(Cl)c2c(NS(C)(=O)=O)nn(C)c12` (stereo partly drawn) [Compound 196, N—((S)-1-(3-(4-chloro-1-methyl-3-(methylsulfonamido)-1H-indazol-7-yl)-6-(3-hydroxy-3-methylbut-1-yn-1-yl)pyridin-2-yl)-2-(3,5-difluorophenyl)ethyl)-2-(4,7-dimethyl-2-oxoindolin-3-yl)acetamide], in the data set on HIV-IIIb, the inhibition at 0.2 µM was 76% and the inhibition at 2 µM amounted to 92%. This compound yielded a cytotoxic concentration (CC50) at 5 days in data set [1] of 10.8 µM.
The like results for `Cn1nc(NS(C)(=O)=O)c2c(Cl)ccc(-c3ccc(C#CC(O)(CF)CF)nc3[C@H](Cc3cc(F)cc(F)c3)NC(=O)Cn3nc(C(F)F)c4c3C(F)(F)[C@@H]3C[C@H]43)c21` [Compound 170, N—((S)-1-(3-(4-chloro-1-methyl-3-(methylsulfonamido)-1H-indazol-7-yl)-6-(4-fluoro-3-(fluoromethyl)-3-hydroxybut-1-yn-1-yl)pyridin-2-yl)-2-(3,5-difluorophenyl)ethyl)-2-((3b-S,4aR)-3-(difluoromethyl)-5,5-difluoro-3b,4,4a,5-tetrahydro-1H-cyclopropa[3,4]cyclopenta[1,2-c]pyrazol-1-yl)acetamide] were, in that order, 88%, 88% and 17 µM.
Regarding `CNc1nn(C)c2c(-c3ccc(C#CC(C)(C)O)nc3[C@H](Cc3cc(F)cc(F)c3)NC(=O)Cn3nc(C(F)F)c4c3C(F)(F)[C@@H]3C[C@H]43)cccc12` [Compound 68G, 2-((3b-S,4aR)-3-(difluoromethyl)-5,5-difluoro-3b,4,4a,5-tetrahydro-1H-cyclopropa[3,4]cyclopenta[1,2-c]pyrazol-1-yl)-N—((S)-2-(3,5-difluorophenyl)-1-(6-(3-hydroxy-3-methylbut-1-yn-1-yl)-3-(1-methyl-3-(methylamino)-1H-indazol-7-yl)pyridin-2-yl)ethyl)acetamide], in the data set on HIV-IIIb, the inhibition at 0.2 µM was 96% and the inhibition at 2 µM was found to be 96%. Further, the CC50 at 5 days in data set [1] stood at 9.64 µM.
